Experimental data reported in US20030138500A1 (priority 2001, published 2003).

What was measured:
Type in all cases: in vivo
[1] = test system: green peach aphid, Myzus persicae (Sulzer); assay: Mortality of green peach aphids on infested radish plants after spray treatment; conditions: Example 4, Table 4, after 2 days, concentration in label
Experimental: Radish plants were placed in a colony for 4 days for infestation with green peach aphid, Myzus persicae (Sulzer). Treatments were then applied with a hand-held trigger sprayer to wetting on all leaf surfaces. After treatment, plants were randomized on a lab bench in a completely randomized block design. Treatments consisted of 8 replicates of 1 plant each. Mortality was assessed after 2 days by counting the live and dead aphids on all leaves.

[2] = test system: twospotted spider mites, Tetranychus urticae Koch; assay: Mortality of adult twospotted spider mites on bush bean leaves after spray treatment; conditions: two days after treatment, concentration in label
Experimental: (§1) Adult twospotted spider mites, Tetranychus urticae Koch, were obtained from a colony and 25 mites per leaf were placed on bush bean plants (one leaf per replicate). Mites were allowed to settle overnight and then treatments were applied to wetting on top and bottom leaf surfaces using a hand-held trigger sprayer. After treatment, plants were randomized on a lab bench in a randomized block design. Treatments consisted of 9 replicates of 1 plant each. Mortality was assessed 2 days following treatment.
as §1, with “10” for “9”

[3] = test system: Green peach aphids, Myzus persicae (Sulzer); assay: Mortality of green peach aphids sprayed on plate glass (60 seconds exposure); conditions: Example 12, Table 12; after 1 day; concentration in label
Experimental: Green peach aphids, Myzus persicae (Sulzer), were obtained from a colony and transferred to plate glass for treatment. Treatments were then applied with a hand-held trigger sprayer to wetting and aphids remained exposed to treatments for 60 seconds. After treatment, aphids were transferred to filter paper lined petri dishes and dishes were randomized on a lab bench in a completely randomized design. Treatments consisted of 10 replicates of 10 aphids each. Mortality was assessed after 1 day.

Compound	Observed % Mortality [1] [%]	Observed % Mortality ([2]; Example 2, Table 2, adult female mites on bush bean) [%]	Observed % Mortality ([2]; Example 3, Table 3, mites on bush bean) [%]	Observed % Mortality ([2]; Example 11, Table 11, adult female mites on bush bean) [%]	Observed % Mortality [3] [%]
S1SSSSSSS1 [Powdered Sulfur (0.2% ai sulfur), Sulfur]	1.3	4.5	2.6	–	–
CC1(C)C(C=C(Cl)Cl)C1C(=O)OCc1cccc(Oc2ccccc2)c1 (centres unmarked) [Permethrin]	–	–	–	26.2	84.0
